pIC50: −log10 of the molar value.
What follows are compounds tested against T1, recombinant human sEH (HsEH) (Homo sapiens, UniProt P34913) (assay: biochemical). Details: not given.
T1 sequence (P34913 1-555): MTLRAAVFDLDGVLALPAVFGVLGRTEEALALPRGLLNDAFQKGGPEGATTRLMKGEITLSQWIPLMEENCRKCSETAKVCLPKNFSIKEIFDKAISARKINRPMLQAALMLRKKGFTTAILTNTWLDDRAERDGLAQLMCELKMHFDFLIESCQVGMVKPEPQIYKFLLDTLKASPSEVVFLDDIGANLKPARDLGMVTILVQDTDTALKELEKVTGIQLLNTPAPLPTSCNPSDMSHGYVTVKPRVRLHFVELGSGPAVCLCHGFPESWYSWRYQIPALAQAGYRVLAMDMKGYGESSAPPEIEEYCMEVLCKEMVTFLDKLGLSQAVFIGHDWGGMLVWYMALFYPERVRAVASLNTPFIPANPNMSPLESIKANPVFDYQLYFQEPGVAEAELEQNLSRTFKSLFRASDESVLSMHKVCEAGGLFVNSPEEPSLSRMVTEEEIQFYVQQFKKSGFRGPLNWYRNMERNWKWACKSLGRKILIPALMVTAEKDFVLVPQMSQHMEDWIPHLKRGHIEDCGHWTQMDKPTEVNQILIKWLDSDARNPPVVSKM

Row | SMILES | pIC50
1 | C[C@]12C[C@@H]3C[C@](C)(C1)C[C@@](NC(=O)Nc1ccc(C(=O)N4CCCC(C(=O)O)C4)cc1F)(C3)C2 (stereo partly drawn) [A, 1-(4-(3-((1r,3R,5S,7r)-3,5-Dimethyladamantan-1-yl)ureido)-3-fluorobenzoyl)piperidine-3-carboxylic acid] | 8.40

Same assay, conditions: LLE = pIC50-cLogP

Row | SMILES | LLE (ligand lipophilicity efficiency)
2 | CCN(CC)C(=O)C1CCN(C(=O)c2ccc(NC(=O)N[C@@]34C[C@@H]5C[C@@](C)(C[C@@](C)(C5)C3)C4)c(F)c2)CC1 [A1, 1-(4-(3-((1r,3R,5S,7r)-3,5-Dimethyladamantan-1-yl)ureido)-3-fluorobenzoyl)-N,N-diethylpiperidine-4-carboxamide] | 4.954
3 | C[C@]12C[C@@H]3C[C@](C)(C1)C[C@@](NC(=O)Nc1ccc(C(=O)N4CCC(C(=O)NCCO)CC4)cc1F)(C3)C2 [A2, 1-(4-(3-((1r,3R,5S,7r)-3,5-Dimethyladamantan-1-yl)ureido)-3-fluorobenzoyl)-N-(2-hydroxyethyl)piperidine-4-carboxamide] | 6.203
4 | CC(O)CNC(=O)C1CCN(C(=O)c2ccc(NC(=O)N[C@@]34C[C@@H]5C[C@@](C)(C[C@@](C)(C5)C3)C4)c(F)c2)CC1 (stereo partly drawn) [A3, 1-(4-(3-((1r,3R,5S,7r)-3,5-Dimethyladamantan-1-yl)ureido)-3-fluorobenzoyl)-N-(2-hydroxypropyl)piperidine-4-carboxamide] | 5.708
5 | C[C@]12C[C@@H]3C[C@](C)(C1)C[C@@](NC(=O)Nc1ccc(C(=O)N4CCCC(C(=O)O)C4)cc1F)(C3)C2 (stereo partly drawn) [A, 1-(4-(3-((1r,3R,5S,7r)-3,5-Dimethyladamantan-1-yl)ureido)-3-fluorobenzoyl)piperidine-3-carboxylic acid] | 4.979
6 | CCN(CC)C(=O)C1CCCN(C(=O)c2ccc(NC(=O)N[C@]34C[C@@H]5C[C@@](C)(C[C@@](C)(C5)C3)C4)c(F)c2)C1 (stereo partly drawn) [B1, 1-(4-(3-((1r,3R,5S,7S)-3,5-Dimethyladamantan-1-yl)ureido)-3-fluorobenzoyl)-N,N-diethylpiperidine-3-carboxamide] | 5.617
7 | C[C@]12C[C@@H]3C[C@](C)(C1)C[C@](NC(=O)Nc1ccc(C(=O)N4CCCC(C(=O)NCCO)C4)cc1F)(C3)C2 (stereo partly drawn) [B2, 1-(4-(3-((1r,3R,5S,7S)-3,5-dimethyladamantan-1-yl)ureido)-3-fluorobenzoyl)-N-(2-hydroxyethyl)piperidine-3-carboxamide] | 7.069
8 | CC(O)CNC(=O)C1CCCN(C(=O)c2ccc(NC(=O)N[C@]34C[C@@H]5C[C@@](C)(C[C@@](C)(C5)C3)C4)c(F)c2)C1 (stereo partly drawn) [B3, 1-(4-(3-((1r,3R,5S,7S)-3,5-Dimethyladamantan-1-yl)ureido)-3-fluorobenzoyl)-N-(2-hydroxypropyl)piperidine-3-carboxamide] | 6.779
9 | C[C@]12C[C@@H]3C[C@](C)(C1)C[C@@](NC(=O)Nc1ccc(C(=O)N4CCCC(C(=O)N5CCN(CCO)CC5)C4)cc1F)(C3)C2 (stereo partly drawn) [B4, 1-((1r,3R,5S,7r)-3,5-Dimethyladamantan-1-yl)-3-(2-fluoro-4-(3-(4-(2-hydroxyethyl)piperazine-1-carbonyl)piperidine-1-carbonyl)phenyl)urea] | 6.516
10 | CC(C)(C)OC(=O)N1CCN(CCNC(=O)C2CCC(NC(=O)c3ccc(NC(=O)N[C@@]45C[C@@H]6C[C@@](C)(C[C@@](C)(C6)C4)C5)c(F)c3)CC2)CC1 (stereo partly drawn) [C1, Tert-butyl-4-(2-(4-(4-(3-((1r,3R,5S,7r)-3,5-dimethyladamantan-1-yl)ureido)-3-fluorobenzamido)cyclohexane-1-carboxamido)ethyl)piperazine-1-carboxylate] | 2.272
11 | C[C@]12C[C@@H]3C[C@](C)(C1)C[C@@](NC(=O)Nc1ccc(C(=O)NC4CCC(C(=O)N5CCC(CCO)CC5)CC4)cc1F)(C3)C2 (stereo partly drawn) [C2, 4-(3-((1r,3R,5S,7r)-3,5-Dimethyladamantan-1-yl)ureido)-3-fluoro-N-(4-(4-(2-hydroxyethyl)piperidine-1-carbonyl)cyclohexyl)benzamide] | 3.655
12 | C[C@]12C[C@@H]3C[C@](C)(C1)C[C@@](NC(=O)Nc1ccc(C(=O)NC4CCC(C(=O)NCCO)CC4)cc1F)(C3)C2 (stereo partly drawn) [C3, 4-(3-((1r,3R,5S,7r)-3,5-Dimethyladamantan-1-yl)ureido)-3-fluoro-N-(4-((2-hydroxyethyl)carbamoyl)cyclohexyl)benzamide] | 6.100
13 | CC(O)CNC(=O)C1CCC(NC(=O)c2ccc(NC(=O)N[C@@]34C[C@@H]5C[C@@](C)(C[C@@](C)(C5)C3)C4)c(F)c2)CC1 (stereo partly drawn) [C4, 4-(3-((1r,3R,5S,7r)-3,5-Dimethyladamantan-1-yl)ureido)-3-fluoro-N-(4-((2-hydroxypropyl)carbamoyl)cyclohexyl)benzamide] | 5.438
14 | C[C@]12C[C@@H]3C[C@](C)(C1)C[C@@](NC(=O)Nc1ccc(C(=O)NC4CCC(C(=O)N(CCO)CCO)CC4)cc1F)(C3)C2 (stereo partly drawn) [C5, N-(4-(Bis(2-hydroxyethyl)carbamoyl)cyclohexyl)-4-(3-((1r,3R,5S,7r)-3,5-dimethyladamantan-1-yl)ureido)-3-fluorobenzamide] | 5.869
15 | C[C@]12C[C@@H]3C[C@](C)(C1)C[C@@](NC(=O)Nc1ccc(C(=O)NC4CCC(C(N)=O)CC4)cc1F)(C3)C2 (stereo partly drawn) [C6, N-(4-Carbamoylcyclohexyl)-4-(3-((1r,3R,5S,7r)-3,5-dimethyladamantan-1-yl)ureido)-3-fluorobenzamide] | 5.746
16 | C[C@]12C[C@@H]3C[C@](C)(C1)C[C@@](NC(=O)Nc1ccc(C(=O)NC4CCC(C(=O)NC(CO)CO)CC4)cc1F)(C3)C2 (stereo partly drawn) [C7, N-(4-((1,3-Dihydroxypropan-2-yl)carbamoyl)cyclohexyl)-4-(3-((1r,3R,5S,7r)-3,5-dimethyladamantan-1-yl)ureido)-3-fluorobenzamide] | 6.555
17 | C[C@]12C[C@@H]3C[C@](C)(C1)C[C@@](NC(=O)Nc1ccc(C(=O)NC4CCC(C(=O)NC(CO)(CO)CO)CC4)cc1F)(C3)C2 (stereo partly drawn) [C8, N-(4-((1,3-Dihydroxy-2-(hydroxymethyl)propan-2-yl)carbamoyl)cyclohexyl)-4-(3-((1r,3R,5S,7r)-3,5-dimethyladamantan-1-yl)ureido)-3-fluorobenzamide] | 7.653
18 | C[C@]12C[C@@H]3C[C@](C)(C1)C[C@@](NC(=O)Nc1ccc(CN4CCCC(C(N)=O)C4)cc1F)(C3)C2 (stereo partly drawn) [D1, 1-(4-(3-((1r,3R,5S,7r)-3,5-Dimethyladamantan-1-yl)ureido)-3-fluorobenzyl)piperidine −3-carboxamide] | 6.464
19 | CN(C)C(=O)C1CCCN(Cc2ccc(NC(=O)N[C@@]34C[C@@H]5C[C@@](C)(C[C@@](C)(C5)C3)C4)c(F)c2)C1 (stereo partly drawn) [D2, 1-(4-(3-((1r,3R,5S,7r)-3,5-Dimethyladamantan-1-yl)ureido)-3-fluorobenzyl)-N,N-dimethylpiperidine-3-carboxamide] | 5.354
20 | CCN(CC)C(=O)C1CCCN(Cc2ccc(NC(=O)N[C@@]34C[C@@H]5C[C@@](C)(C[C@@](C)(C5)C3)C4)c(F)c2)C1 (stereo partly drawn) [D3, 1-(4-(3-((1r,3R,5S,7r)-3,5-Dimethyladamantan-1-yl)ureido)-3-fluorobenzyl)-N,N-diethylpiperidine-3-carboxamide] | 4.957
21 | CC(O)CNC(=O)C1CCCN(Cc2ccc(NC(=O)N[C@@]34C[C@@H]5C[C@@](C)(C[C@@](C)(C5)C3)C4)c(F)c2)C1 (stereo partly drawn) [D4, 1-(4-(3-((1r,3R,5S,7r)-3,5-Dimethyladamantan-1-yl)ureido)-3-fluorobenzyl)-N-(2-hydroxypropyl)piperidine-3-carboxamide] | 6.119
22 | C[C@]12C[C@@H]3C[C@](C)(C1)C[C@@](NC(=O)Nc1ccc(CN4CCCC(C(=O)N(CCO)CCO)C4)cc1F)(C3)C2 (stereo partly drawn) [D5, 1-(4-(3-((1r,3R,5S,7r)-3,5-Dimethyladamantan-1-yl)ureido)-3-fluorobenzyl)-N,N-bis(2-hydroxyethyl)piperidine-3-carboxamide] | 6.879
23 | C[C@]12C[C@@H]3C[C@](C)(C1)C[C@@](NC(=O)Nc1ccc(CN4CCCC(C(=O)NCCO)C4)cc1F)(C3)C2 (stereo partly drawn) [D6, 1-(4-(3-((1r,3R,5S,7r)-3,5-Dimethyladamantan-1-yl)ureido)-3-fluorobenzyl)-N-(2-hydroxyethyl)piperidine-3-carboxamide] | 6.145
24 | C[C@]12C[C@@H]3C[C@](C)(C1)C[C@@](NC(=O)Nc1ccc(CN4CCCC(C(=O)NC(CO)CO)C4)cc1F)(C3)C2 (stereo partly drawn) [D7, N-(1,3-Dihydroxypropan-2-yl)-1-(4-(3-((1r,3R,5S,7r)-3,5-dimethyladamantan-1-yl)ureido)-3-fluorobenzyl)piperidine-3-carboxamide] | 7.008
25 | C[C@]12C[C@@H]3C[C@](C)(C1)C[C@@](NC(=O)Nc1ccc(CN4CCCC(C(=O)NC(CO)(CO)CO)C4)cc1F)(C3)C2 (stereo partly drawn) [D8, N-(1,3-Dihydroxy-2-(hydroxymethyl)propan-2-yl)-1-(4-(3-((1r,3R,5S,7r)-3,5-dimethyladamantan-1-yl)ureido)-3-fluorobenzyl)piperidine-3-carboxamide] | 7.992
26 | C[C@]12C[C@@H]3C[C@](C)(C1)C[C@@](NC(=O)Nc1ccc(CN4CCCC(C(=O)N5CCN(CCO)CC5)C4)cc1F)(C3)C2 (stereo partly drawn) [D9, 1-((1r,3R,5S,7r)-3,5-Dimethyladamantan-1-yl)-3-(2-fluoro-4-((3-(4-(2-hydroxyethyl)piperazine-1-carbonyl)piperidin-1-yl)methyl)phenyl)urea] | 5.790

From publication PMC9974930 (Journal of medicinal chemistry, 2023)
